Data on 2 compounds can be found in paper PMC6718442, “11β-Hydroxysteroid dehydrogenases control access of 7β,27-dihydroxycholesterol to retinoid-related orphan receptor γ” (Journal of Lipid Research, 2019).

Several values for one entry are separate records, joined by “and”; a condition that tells them apart may be missing. Equal entries are not always repeated.

The assay has as its target T1, 11β-HSD2 (Homo sapiens, UniProt P80365).
T1 construct: expressed in transfected cells
T1 sequence (P80365 1-405): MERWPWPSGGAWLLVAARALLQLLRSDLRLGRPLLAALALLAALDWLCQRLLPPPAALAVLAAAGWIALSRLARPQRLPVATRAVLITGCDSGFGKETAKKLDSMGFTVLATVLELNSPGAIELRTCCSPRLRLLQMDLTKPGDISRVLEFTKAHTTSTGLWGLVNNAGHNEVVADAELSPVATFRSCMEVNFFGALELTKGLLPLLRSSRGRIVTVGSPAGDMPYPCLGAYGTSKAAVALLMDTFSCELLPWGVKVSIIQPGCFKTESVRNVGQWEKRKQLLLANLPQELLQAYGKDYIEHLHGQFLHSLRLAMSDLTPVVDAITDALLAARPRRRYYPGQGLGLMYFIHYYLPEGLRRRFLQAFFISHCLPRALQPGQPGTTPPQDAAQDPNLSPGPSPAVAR
The experiment in a line: 11β-HSD2-dependent metabolism of 7-oxygenated 27OHCs in intact HEK-293 cells expressing 11β-HSD2. In kind it is cell-based. To be noted: for Metabolism by 11β-HSD2 in intact cells (in words): 500 nM substrate, 30 min. Here is the method: Fifty thousand stably transfected HEK-293 cells expressing either 11β-HSD2 [clone AT8 ([34])] or 11β-HSD1 and hexose-6-phosphate dehydrogenase (H6PDH) [clone HHH7 ([35])] were seeded in poly-L-lysine-coated 96-well plates and incubated for 24 h. H6PDH provides the cofactor NADPH and is required for an efficient oxoreduction reaction by 11β-HSD1 ([36]). The medium was changed to steroid- and phenol red-free DMEM (DMEM SF) for another 2 h and the cells were then treated with 1 μM of 7k27OHC in the presence or absence of 1 μM of T0504 (to inhibit 11β-HSD1) or 0.5 μM of 7β27OHC or 7α27OHC in the presence or absence of 5 μM of glycyrrhetinic acid (GA) (to inhibit 11β-HSD2). Metabolic conversion was determined after 0.5 h for 11β-HSD2 and after 1 h for 11β-HSD1.
Ice-cold acetonitrile:isopropanol (7:3, v/v) mixture containing either 100 nM deuterium-labeled 7β27OHC or corticosterone as internal standards were used to extract oxysterols from cell culture supernatants. Additionally, 1.5% (v/v) of a standard solution of the antioxidant butylated hydroxytoluene (BHT) and the peroxide reducing agent triphenylphosphine (TPP) (10 mg BHT and 25 mg TPP in 10 ml ethanol) was added ([37]). In experiments with SW-620 cells, oxysterols were extracted from cell supernatants and cells. The samples were incubated for 30 min at 4°C and 700 rotations per minute, centrifuged (16,000 g, 10 min, 4°C), and the supernatant evaporated to dryness under nitrogen to minimize oxidation from atmospheric oxygen. After reconstitution in 50 μl of methanol:ultra-pure water (1:1, v/v), the samples were again centrifuged (16,000 g, 10 min, 4°C) and the supernatants analyzed. Data (mean ± SD) were obtained from three independent experiments.
An Agilent 1290 Infinity UHPLC binary solvent delivery system including a temperature controlled autosampler and a column oven coupled to an Agilent 6490 triple quadrupole mass spectrometer with a jet stream electrospray ionization interface (AJS-ESI) (Agilent Technologies) was used to analyze oxysterols. […]

Consider `C[C@@H](CO)CCC[C@@H](C)[C@H]1CC[C@H]2[C@@H]3[C@H](O)C=C4C[C@@H](O)CC[C@]4(C)[C@H]3CC[C@]12C` [7α27OHC], for which the “Metabolism by 11β-HSD2 in intact cells (in words)” value is “lack of 7α27OHC metabolism”.

In the case of `CC(CO)CCC[C@@H](C)[C@H]1CC[C@H]2[C@@H]3[C@@H](O)C=C4C[C@@H](O)CC[C@]4(C)[C@H]3CC[C@]12C` (stereo partly drawn) [7β27OHC, 7β,27-dihydroxycholesterol], the “Metabolism by 11β-HSD2 in intact cells (in words)” value is listed as “exclusive oxidation of 7β27OHC to 7k27OHC”. Where the note is “intact HEK-293 cells, substrate concentration 500 nM”, the Vapp cell intact is 0.6 ± 0.1 nmol·h^−1·mg total protein^−1 and 0.6 ± 0.1^b nmol·h^−1·mg total protein^−1.
